US8802597B2, “Herbicidal pyrimidines” (E I du Pont de Nemours and Company, priority 2003, dated 2014)

Experiments:
Type in all cases: in vivo
[1] = test system: wheat (Triticum aestivum); test: Test B pre/postemergence; settings: for Wheat plant response rating: Postemergence; for Plant response rating, Wheat: Preemergence
Method in brief: (§1)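 Compounds in non-phytotoxic solvent with surfactant applied preemergence to planted seeds or postemergence to plants 2 to 18 cm tall (1- to 4-leaf stage). Greenhouse 13 to 15 days, then visual rating against controls on a 0 to 100 scale (100 = complete control).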

[2] = test system: corn (Zea mays); test: Test B pre/postemergence; settings: for Corn plant response rating: Postemergence; for Plant response rating, Corn: Preemergence
Method in brief: as §1

[3] = test system: velvetleaf (Abutilon theophrasti); test: Test B pre/postemergence; settings: for Velvetleaf plant response rating: Postemergence; for Plant response rating, Velvetleaf: Preemergence
Method in brief: as §1

[4] = test system: Surinam grass (Brachiaria decumbens); test: Test B pre/postemergence; settings: for Surinam Grass plant response rating: Postemergence; for Plant response rating, Surinam Grass: Preemergence
Method in brief: as §1

[5] = test system: lambsquarters (Chenopodium album); test: Test B pre/postemergence; settings: for Lambsquarters plant response rating: Postemergence; for Plant response rating, Lambsquarters: Preemergence
Method in brief: as §1

[6] = test system: giant foxtail (Setaria faberii); test: Test B pre/postemergence; settings: for Foxtail, Giant plant response rating: Postemergence; for Plant response rating, Foxtail, Giant: Preemergence
Method in brief: as §1

[7] = test system: pigweed (Amaranthus retroflexus); test: Test B pre/postemergence; settings: for Pigweed plant response rating: Postemergence; for Plant response rating, Pigweed: Preemergence
Method in brief: as §1

[8] = test system: barnyardgrass (Echinochloa crus-galli); test: Test B pre/postemergence; settings: for Barnyardgrass plant response rating: Postemergence; for Plant response rating, Barnyardgrass: Preemergence
Method in brief: as §1

[9] = test system: morningglory (Ipomoea coccinea); test: Test B pre/postemergence; settings: for Morningglory plant response rating: Postemergence; for Plant response rating, Morningglory: Preemergence
Method in brief: as §1

[10] = test system: cocklebur (Xanthium strumarium); test: Test B pre/postemergence; settings: for Cocklebur plant response rating: Postemergence; for Plant response rating, Cocklebur: Preemergence
Method in brief: as §1

[11] = test system: crabgrass (Digitaria sanguinalis); test: Test B pre/postemergence; settings: for Crabgrass plant response rating: Postemergence; for Plant response rating, Crabgrass: Preemergence
Method in brief: as §1

[12] = test system: wild oat (Avena fatua); test: Test B postemergence; settings: scale 0 to 100 (0 no effect, 100 complete control)
Method in brief: as §1

[13] = test system: blackgrass (Alopecurus myosuroides); test: Test B postemergence; settings: scale 0 to 100 (0 no effect, 100 complete control)
Method in brief: as §1

[14] = test system: barnyardgrass (Echinochloa crus-galli); test: Test B flooded paddy test; settings: Flood, scale 0 to 100
Method in brief: (§2)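 Plants were grown to the 2-leaf stage before treatment, then kept in a greenhouse for 13 to 15 days. Injury was rated visually against untreated controls on a 0 to 100 scale, where 0 is no effect and 100 is complete control.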

[15] = test system: duck salad (Heteranthera limosa); test: Test B flooded paddy test; settings: Flood, scale 0 to 100
Method in brief: as §2

[16] = test system: rice (Oryza sativa); test: Test B flooded paddy test; settings: Flood, scale 0 to 100
Method in brief: as §2

[17] = test system: umbrella sedge (Cyperus difformis); test: Test B flooded paddy test; settings: Flood, scale 0 to 100
Method in brief: as §2

[18] = 62 g ai/ha, scale 0 to 100 (0 no effect, 100 complete control)
[19] = 125 g ai/ha, scale 0 to 100 (0 no effect, 100 complete control)
[20] = 62 g ai/ha, scale 0 to 100, 0 no effect, 100 complete control

In the case of `COC(=O)c1nc(-c2ccc(I)cc2)nc(N)c1Br` [Compound 128], the “Wheat plant response rating” value [1, 18] is reported as 0, the “Wheat plant response rating” value [1, 19] is reported as 20 and the “Plant response rating, Wheat” value [1, 20] is reported as 0. For the same compound, the “Plant response rating, Wheat” value [1, 19] was 0, the “Corn plant response rating” value [2, 18] was 10 and the “Corn plant response rating” value [2, 19] was 70. For the same compound, the “Plant response rating, Corn” value [2, 20] was 0, the “Plant response rating, Corn” value [2, 19] was 0 and the “Velvetleaf plant response rating” value [3, 18] was 50. The “Velvetleaf plant response rating” value [3, 19] was 80, the “Plant response rating, Velvetleaf” value [3, 20] was 0 and the “Plant response rating, Velvetleaf” value [3, 19] was 40. The “Surinam Grass plant response rating” value [4, 18] was 30, the “Surinam Grass plant response rating” value [4, 19] was 40 and the “Plant response rating, Surinam Grass” value [4, 20] was 0. For the same compound, the “Plant response rating, Surinam Grass” value [4, 19] was 0, the “Lambsquarters plant response rating” value [5, 18] was 90 and the “Lambsquarters plant response rating” value [5, 19] was 90. The “Plant response rating, Lambsquarters” value [5, 20] was 10, the “Plant response rating, Lambsquarters” value [5, 19] was 50 and the “Foxtail, Giant plant response rating” value [6, 18] was 30. For the same compound, the “Foxtail, Giant plant response rating” value [6, 19] was 50, the “Plant response rating, Foxtail, Giant” value [6, 20] was 0 and the “Plant response rating, Foxtail, Giant” value [6, 19] was 0. The “Pigweed plant response rating” value [7, 18] was 90, the “Pigweed plant response rating” value [7, 19] was 90 and the “Plant response rating, Pigweed” value [7, 20] was 10. For the same compound, the “Plant response rating, Pigweed” value [7, 19] was 50, the “Barnyardgrass plant response rating” value [8, 18] was 40 and the “Barnyardgrass plant response rating” value [8, 19] was 60. For the same compound, the “Plant response rating, Barnyardgrass” value [8, 20] was 0, the “Plant response rating, Barnyardgrass” value [8, 19] was 10 and the “Morningglory plant response rating” value [9, 18] was 40. The “Morningglory plant response rating” value [9, 19] was 90, the “Plant response rating, Morningglory” value [9, 20] was 0 and the “Plant response rating, Morningglory” value [9, 19] was 0. For the same compound, the “Cocklebur plant response rating” value [10, 18] was 70, the “Cocklebur plant response rating” value [10, 19] was 90 and the “Plant response rating, Cocklebur” value [10, 20] was 0. The “Plant response rating, Cocklebur” value [10, 19] was 10, the “Crabgrass plant response rating” value [11, 18] was 20 and the “Crabgrass plant response rating” value [11, 19] was 40. The “Plant response rating, Crabgrass” value [11, 20] was 0, the “Plant response rating, Crabgrass” value [11, 19] was 0 and the “Oat, Wild plant response rating” value ([12]; 62 g ai/ha) was 0. The “Oat, Wild plant response rating” value ([12]; 125 g ai/ha) was 40, the “Blackgrass plant response rating” value ([13]; 62 g ai/ha) was 40 and the “Blackgrass plant response rating” value ([13]; 125 g ai/ha) was 50. The “Plant response rating, Barnyardgrass” value ([14]; 125 g ai/ha) was 0, the “Plant response rating, Barnyardgrass” value ([14]; 500 g ai/ha) was 30 and the “Plant response rating, Ducksalad” value ([15]; 125 g ai/ha) was 90. The “Plant response rating, Ducksalad” value ([15]; 500 g ai/ha) was 100, the “Plant response rating, Rice” value ([16]; 125 g ai/ha) was 0 and the “Plant response rating, Rice” value ([16]; 500 g ai/ha) was 0. For the same compound, the “Plant response rating, Sedge, Umbrella” value ([17]; 125 g ai/ha) was 90 and the “Plant response rating, Sedge, Umbrella” value ([17]; 500 g ai/ha) was 100.
